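Where inhibition never reached the appropriate level, the endpoint shown equals the highest concentration tested. Otherwise, values were interpolated linearly from a five-concentration, 48-hour dose response in 96-well plates. At the TGI there is no net growth.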
Tests used:
Assay in all cases: NCI anticancer screen, dose series, 48 h
[1] = tested on: CCRF-CEM leukemia
[2] = tested on: LOX IMVI melanoma
[3] = tested on: MCF7 breast
[4] = tested on: NCI-H226 lung
[5] = tested on: NCI/ADR-RES ovarian
[6] = tested on: OVCAR-8 ovarian
[7] = tested on: SF-295 CNS
[8] = tested on: SF-539 CNS
[9] = tested on: SNB-19 CNS
[10] = tested on: T-47D breast

| SMILES | TGI [1] | TGI [2] | TGI [3] | TGI [4] | TGI [5] | TGI [6] | TGI [7] | TGI [8] | TGI [9] | TGI [10] |
| --- | --- | --- | --- | --- | --- | --- | --- | --- | --- | --- |
| CC(C)(C)c1cc(C2COC(=O)COCC(=O)OCCOCCOCCO2)cc(C(C)(C)C)c1O (stereo not given) | > 100 µM | > 80.2 µM | > 100 µM | > 100 µM | > 100 µM | > 100 µM | 58.5 µM | > 79.7 µM | > 100 µM | > 100 µM |
| CCC(C)C1(O)OC2CC3(C)OC(=CC3=O)/C(C)=C\C3OC(=O)C1(C)C32 (stereo not given) | > 100 µM | 49.4 µM | 28.4 µM | 63 µM | > 100 µM | 59.9 µM | 60.9 µM | > 100 µM | 77.5 µM | 33.7 µM |
| COc1cc(C(SCc2ccccc2)SCc2ccccc2)ccc1O | > 10 µM | > 10 µM | > 10 µM | > 10 µM | > 10 µM | > 10 µM | > 10 µM | > 10 µM | > 10 µM | > 10 µM |
| Cc1n(CC(=O)c2ccccc2)nc2sc(N)n[n+]12 | > 100 µM | > 100 µM | > 100 µM | > 100 µM | > 100 µM | > 100 µM | > 100 µM | > 100 µM | > 100 µM | > 100 µM |
| CC[C@@H]1CC[C@@H]2[C@H](CC[C@]3(C)[C@@H](OS(=O)(=O)c4ccc(C)cc4)CC[C@@H]23)[C@H]1CO | > 100 µM | > 100 µM | > 100 µM | > 100 µM | > 100 µM | > 100 µM | > 100 µM | > 100 µM | > 100 µM | > 100 µM |
| O=C(OCc1ccccc1)N1c2cc([N+](=O)[O-])ccc2C(=O)N2CCC[C@H]2C1O (stereo not given in full) | > 100 µM | > 100 µM | > 100 µM | > 100 µM | > 100 µM | > 100 µM | > 100 µM | > 100 µM | > 100 µM | > 100 µM |
| CC1CCC2(CC1)N=C1CCC(C)CC1C1(CCC(C)CC1)N2 (stereo not given) | > 100 µM | > 100 µM | > 100 µM | > 100 µM | > 100 µM | > 100 µM | > 100 µM | > 100 µM | > 100 µM | > 100 µM |
| Nc1c(S(=O)(=O)O)cc(Nc2cccc(S(=O)(=O)/C=C/S(=O)(=O)O)c2)c2c1C(=O)c1ccccc1C2=O | > 100 µM | > 100 µM | > 100 µM | > 100 µM | > 100 µM | > 100 µM | > 100 µM | > 100 µM | > 100 µM | > 100 µM |
| COc1ccc(/C=N/n2c(Cc3ccc(Cl)cc3)n[nH]c2=O)c(OC)c1 | > 100 µM | > 100 µM | > 100 µM | 61.2 µM | 45.2 µM | 95.5 µM | 42.9 µM | > 100 µM | 48.4 µM | > 100 µM |
| COc1cc2c(cc1Cl)n([O-])c(C#N)c(N1CCN(c3ccc([N+](=O)[O-])cc3)CC1)[n+]2=O | > 100 µM | 73.6 µM | > 100 µM | > 100 µM | > 100 µM | 60.1 µM | > 100 µM | 44.3 µM | > 100 µM | > 81.5 µM |
| O=c1[nH]c2ccccc2c2oc(-c3ccccc3)nc12 | 52.6 µM | 50.6 µM | > 100 µM | > 100 µM | > 100 µM | 59.1 µM | 57.6 µM | > 100 µM | 80.8 µM | > 100 µM |
| NCCCCNC1(c2cc3ccccc3s2)CCCCC1 | 5.44 µM | 4.03 µM | 9.75 µM | 34 µM | 21.2 µM | 20.9 µM | 8.83 µM | 4.59 µM | 21.1 µM | 5.23 µM |
| Nc1nc2cc(CNc3ccc(C(=O)NC(CCC(=O)O)C(=O)O)cc3)ccc2nc1-c1ccccc1 (stereo not given) | > 10 µM | > 10 µM | > 10 µM | > 10 µM | > 10 µM | > 10 µM | > 10 µM | > 10 µM | > 10 µM | > 10 µM |
| Cc1cccc2c1C/C(=C\c1cccc(C)c1C(=O)O)C2=O | > 100 µM | > 100 µM | > 100 µM | > 100 µM | > 100 µM | > 100 µM | > 100 µM | > 100 µM | > 100 µM | > 100 µM |
| O=C(NN1C(=O)C=CC1=O)c1ccccc1Nc1ccccc1C(=O)NN1C(=O)C=CC1=O | > 100 µM | > 100 µM | > 100 µM | > 100 µM | > 100 µM | > 100 µM | > 100 µM | > 100 µM | > 100 µM | > 100 µM |
| CC(=O)NC1=CC(=O)c2cc(C)cc(O)c2C1=O | 12.9 µM | 7.74 µM | 7.8 µM | 38.5 µM | 23.9 µM | 18.7 µM | 39.4 µM | 14.8 µM | > 62.7 µM | 35 µM |
| CC(=O)NC1=C(C)C(=O)c2c(nc3n2CC[C@H]3OC(C)=O)C1=O | > 100 µM | 2.11 µM | 3.37 µM | 29.7 µM | 15.6 µM | 6.75 µM | 5.49 µM | 4.38 µM | 10.8 µM | 1.37 µM |
| CCOC(=O)C(=Cn1c(=S)[nH]c2ccc([N+](=O)[O-])cc21)C(=O)OCC | > 100 µM | > 100 µM | > 100 µM | > 100 µM | > 100 µM | > 100 µM | > 100 µM | > 100 µM | > 100 µM | > 100 µM |
| CN(C)CCn1c(=O)c2ccc3c4c(nn3CCN(C)C)c3ccccc3n(c1=O)c24 | 10.9 µM | 1.38 µM | 1.05 µM | 2.92 µM | 2.58 µM | 0.288 µM | 0.849 µM | 2.2 µM | 3.75 µM | 3.74 µM |
| COC(=O)CCN(CCC(=O)OC)C1CC1 | > 100 µM | > 100 µM | > 100 µM | > 100 µM | > 100 µM | > 100 µM | > 100 µM | > 100 µM | > 100 µM | > 100 µM |
| Cc1nnc2sc(N/N=C/c3ccccc3)nn12 | > 100 µM | > 100 µM | > 100 µM | > 100 µM | > 100 µM | > 100 µM | > 100 µM | > 100 µM | > 100 µM | > 100 µM |
| C/C(N=Nc1nc2ccccc2o1)=C1/C=CC=CN1O | > 100 µM | > 100 µM | 81.2 µM | > 100 µM | 89.1 µM | > 100 µM | 10.1 µM | 62 µM | > 100 µM | > 100 µM |
| NC(=O)NCCCC(NC(=O)OCCCCCn1ccc(=O)[nH]c1=O)C(=O)O (stereo not given) | > 100 µM | > 100 µM | > 100 µM | > 100 µM | > 100 µM | > 100 µM | > 100 µM | > 100 µM | > 100 µM | > 100 µM |
| CS(=O)(=O)O.[Ag] | 6.64 µM | 73.9 µM | 24.8 µM | 51.4 µM | 74.3 µM | > 100 µM | > 100 µM | 32.1 µM | 78.7 µM | 5.5 µM |
| CCOC(=O)N(C)C1(c2ccccc2)CCN(CCCC(=O)c2ccc(F)cc2)CC1 | > 100 µM | 42.3 µM | 85.2 µM | > 100 µM | > 100 µM | > 100 µM | > 100 µM | 65.7 µM | 0.835 µM | > 100 µM |
| N#Cc1nc(/C=C/c2ccccc2)oc1N | > 100 µM | > 100 µM | > 100 µM | > 100 µM | > 100 µM | > 100 µM | > 100 µM | > 100 µM | > 100 µM | > 100 µM |
| O=C1C(N=Nc2ccc(-c3nc4ccccc4[nH]3)cc2)NC(=S)N1c1ccccc1 (stereo not given) | 56 µM | 39.4 µM | 24.8 µM | > 100 µM | > 100 µM | > 100 µM | > 100 µM | > 100 µM | > 100 µM | 62.8 µM |
| CCOC(=O)C(NCc1cccc(C(F)(F)F)c1)(NC(=O)c1ccccc1)C(F)(F)F (stereo not given) | > 100 µM | 48.3 µM | > 100 µM | > 100 µM | 84.5 µM | > 100 µM | > 100 µM | > 100 µM | > 100 µM | 80 µM |
